{
  "source": "ChEMBL document CHEMBL2073873",
  "about": "“Identification of a novel human organic anion transporting polypeptide as a high affinity thyroxine transporter” (Mol Endocrinol, 2002)",
  "molecules": {"B1": {"name": "Solute carrier organic anion transporter family member 1C1 (Homo sapiens) (protein)", "chain": "MDTSSKENIQLFCKTSVQPVGRPSFKTEYPSSEEKQPCCGELKVFLCALSFVYFAKALAEGYLKSTITQIERRFDIPSSLVGVIDGSFEIGNLLVITFVSYFGAKLHRPKIIGAGCVIMGVGTLLIAMPQFFMEQYKYERYSPSSNSTLSISPCLLESSSQLPVSVMEKSKSKISNECEVDTSSSMWIYVFLGNLLRGIGETPIQPLGIAYLDDFASEDNAAFYIGCVQTVAIIGPIFGFLLGSLCAKLYVDIGFVNLDHITITPKDPQWVGAWWLGYLIAGIISLLAAVPFWYLPKSLPRSQSREDSNSSSEKSKFIIDDHTDYQTPQGENAKIMEMARDFLPSLKNLFGNPVYFLYLCTSTVQFNSLFGMVTYKPKYIEQQYGQSSSRANFVIGLINIPAVALGIFSGGIVMKKFRISVCGAAKLYLGSSVFGYLLFLSLFALGCENSDVAGLTVSYQGTKPVSYHERALFSDCNSRCKCSETKWEPMCGENGITYVSACLAGCQTSNRSGKNIIFYNCTCVGIAASKSGNSSGIVGRCQKDNGCPQMFLYFLVISVITSYTLSLGGIPGYILLLRCIKPQLKSFALGIYTLAIRVLAGIPAPVYFGVLIDTSCLKWGFKRCGSRGSCRLYDSNVFRHIYLGLTVILGTVSILLSIAVLFILKKNYVSKHRSFITKRERTMVSTRFQKENYTTSDHLLQPNYWPGKETQL"}},
  "note": "Residues, ends and D or L forms follow the SMILES beside them.",
  "data": [
    {"molecular_target": "T1, Solute carrier organic anion transporter family member 1C1 (Homo sapiens, UniProt Q9NYB5)", "T1 sequence (Q9NYB5 whole entry)": "B1 chain", "experiment": "(§1) TP_TRANSPORTER: uptake in OATP-F-expressing CHO cells", "type": "functional, cell-based", "conditions": "hamster", "values": [
      {"molecule": "C=C[C@H]1C[N+]2(C)CC[C@H]1C[C@H]2[C@H](O)c1ccnc2ccc(OC)cc12", "Activity": "is not a substrate [-]"},
      {"molecule": "CC1(C)SSC(C)(C)[C@@H](NC(=O)[C@@H](N)Cc2ccc(O)cc2)C(=O)NCC(=O)N[C@@H](Cc2ccccc2)C(=O)N[C@H]1C(=O)O", "Activity": "is not a substrate [-]"},
      {"molecule": "CC(C)C[C@@H]1NC(=O)[C@@H](C(C)C)NC(=O)[C@@H]2CCCN2C(=O)[C@@H](CC(=O)O)NC(=O)[C@@H](Cc2c[nH]c3ccccc23)NC1=O", "note": "[BQ-123] (HELM PEPTIDE1{L.[dW].[dD].P.[dV]}$PEPTIDE1,PEPTIDE1,1:R1-5:R2$$$V2.0)", "Activity": "is not a substrate [-]"},
      {"molecule": "CC(C)[C@H](NC(=O)[C@H](CCC(=O)O)NC(=O)[C@H](Cc1ccccc1)NC(=O)[C@@H](C)NC(=O)[C@@H](N)Cc1ccc(O)cc1)C(=O)N[C@H](C(=O)NCC(N)=O)C(C)C", "note": "[DELTORPHIN II]", "Activity": "is not a substrate [-]"},
      {"molecule": "CCCCC[C@H](O)/C=C/[C@H]1[C@H](O)CC(=O)[C@@H]1C/C=C\\CCCC(=O)O", "note": "[DINOPROSTONE]", "Activity": "is not a substrate [-]"},
      {"molecule": "C[C@]12CC[C@@H]3c4ccc(O)cc4CC[C@H]3[C@@H]1CC[C@@H]2O[C@@H]1O[C@H](C(=O)O)[C@@H](O)[C@H](O)[C@H]1O", "note": "[ESTRADIOL 17B GLUCURONIDE]", "Activity": "substrate [+]"},
      {"molecule": "C[C@]12CC[C@@H]3c4ccc(OS(=O)(=O)O)cc4CC[C@H]3[C@@H]1CCC2=O", "note": "[ESTRONE SULFURIC ACID]", "Activity": "substrate [+]"},
      {"molecule": "C[C@H](CCC(=O)NCC(=O)O)[C@H]1CC[C@H]2[C@@H]3[C@H](O)C[C@@H]4C[C@H](O)CC[C@]4(C)[C@H]3C[C@H](O)[C@]12C", "note": "[GLYCOCHOLIC ACID]", "Activity": "is not a substrate [-]"},
      {"molecule": "CCCCC/C=C\\C\\C=C/C=C/C=C/[C@@H](SC[C@@H](NC(=O)CC[C@H](N)C(=O)O)C(=O)NCC(=O)O)[C@@H](O)CCCC(=O)O", "note": "[LEUKOTRIEN C4]", "Activity": "is not a substrate [-]"},
      {"molecule": "N[C@@H](Cc1cc(I)c(Oc2ccc(O)c(I)c2)c(I)c1)C(=O)O", "note": "[LIOTHYRONINE]", "Activity": "substrate [+]"},
      {"molecule": "CN(Cc1cnc2nc(N)nc(N)c2n1)c1ccc(C(=O)N[C@@H](CCC(=O)O)C(=O)O)cc1", "note": "[METHOTREXATE]", "Activity": "is not a substrate [-]"},
      {"molecule": "C[C@@H]1O[C@@H](O[C@H]2C[C@@H](O)[C@]3(CO)[C@H]4[C@H](O)C[C@]5(C)[C@@H](C6=CC(=O)OC6)CC[C@]5(O)[C@@H]4CC[C@]3(O)C2)[C@H](O)[C@H](O)[C@H]1O", "note": "[OUABAIN]", "Activity": "is not a substrate [-]"},
      {"molecule": "C[C@]12CC[C@H](OS(=O)(=O)O)CC1=CC[C@@H]1[C@@H]2CC[C@]2(C)C(=O)CC[C@@H]12", "note": "[PRASTERONE SULFURIC ACID]", "Activity": "is not a substrate [-]"},
      {"molecule": "O=C1OC(c2ccc(O)c(S(=O)(=O)[O-])c2)(c2ccc(O)c(S(=O)(=O)[O-])c2)c2c(Br)c(Br)c(Br)c(Br)c21.[Na+].[Na+]", "note": "[SULFOBROMOPHTHALEIN SODIUM]", "Activity": "substrate [+]"}
    ]},
    {"substrate": "N[C@@H](Cc1cc(I)c(Oc2cc(I)c(O)c(I)c2)c(I)c1)C(=O)O", "experiment": "as §1", "type": "functional, cell-based", "conditions": "not given", "units": {"Km": "µM"}, "values": [
      {"molecule": "B1", "Km": 0.0904}
    ]},
    {"substrate": "N[C@@H](Cc1ccc(Oc2cc(I)c(O)c(I)c2)c(I)c1)C(=O)O", "experiment": "as §1", "type": "functional, cell-based", "conditions": "not given", "units": {"Km": "µM"}, "values": [
      {"molecule": "B1", "Km": 0.128}
    ]}
  ]
}
